Converted amounts (≈) assume the structure as drawn.
Assays:
[1] = target: Adenosine receptor A1 (Homo sapiens) (UniProt P30542); settings: CHO, 10 uM
[2] = Displacement of [3H]alpha, beta-methylene-ATP from purinergic P2X receptor in New Zealand albino rabbit urinary bladder after 30 mins; set-up: species or system Oryctolagus cuniculus
[3] = organism: Oryctolagus cuniculus; assay: Displacement of [3H]alpha, beta-methylene-ATP from purinergic P2X receptor in New Zealand albino rabbit urinary bladder at 10 uM after 30 mins relative to control
[4] = Displacement of [3H]PDBu from phorbol ester receptor in ICR mouse brain after 60 mins
[5] = organism: Mus musculus; assay: Displacement of [3H]PDBu from phorbol ester receptor in ICR mouse brain at 10 uM after 60 mins relative to control
[6] = target: Gamma-aminobutyric acid type B receptor subunit 1 (Homo sapiens) (UniProt Q9UBS5); assay: Displacement of [3H]CGP54626 from human recombinant GABAB1A receptor expressed in CHO cells at 10 uM after 3 hrs relative to control; assay type: cell-based
Chain of Gamma-aminobutyric acid type B receptor subunit 1 (Homo sapiens) (Q9UBS5 whole entry): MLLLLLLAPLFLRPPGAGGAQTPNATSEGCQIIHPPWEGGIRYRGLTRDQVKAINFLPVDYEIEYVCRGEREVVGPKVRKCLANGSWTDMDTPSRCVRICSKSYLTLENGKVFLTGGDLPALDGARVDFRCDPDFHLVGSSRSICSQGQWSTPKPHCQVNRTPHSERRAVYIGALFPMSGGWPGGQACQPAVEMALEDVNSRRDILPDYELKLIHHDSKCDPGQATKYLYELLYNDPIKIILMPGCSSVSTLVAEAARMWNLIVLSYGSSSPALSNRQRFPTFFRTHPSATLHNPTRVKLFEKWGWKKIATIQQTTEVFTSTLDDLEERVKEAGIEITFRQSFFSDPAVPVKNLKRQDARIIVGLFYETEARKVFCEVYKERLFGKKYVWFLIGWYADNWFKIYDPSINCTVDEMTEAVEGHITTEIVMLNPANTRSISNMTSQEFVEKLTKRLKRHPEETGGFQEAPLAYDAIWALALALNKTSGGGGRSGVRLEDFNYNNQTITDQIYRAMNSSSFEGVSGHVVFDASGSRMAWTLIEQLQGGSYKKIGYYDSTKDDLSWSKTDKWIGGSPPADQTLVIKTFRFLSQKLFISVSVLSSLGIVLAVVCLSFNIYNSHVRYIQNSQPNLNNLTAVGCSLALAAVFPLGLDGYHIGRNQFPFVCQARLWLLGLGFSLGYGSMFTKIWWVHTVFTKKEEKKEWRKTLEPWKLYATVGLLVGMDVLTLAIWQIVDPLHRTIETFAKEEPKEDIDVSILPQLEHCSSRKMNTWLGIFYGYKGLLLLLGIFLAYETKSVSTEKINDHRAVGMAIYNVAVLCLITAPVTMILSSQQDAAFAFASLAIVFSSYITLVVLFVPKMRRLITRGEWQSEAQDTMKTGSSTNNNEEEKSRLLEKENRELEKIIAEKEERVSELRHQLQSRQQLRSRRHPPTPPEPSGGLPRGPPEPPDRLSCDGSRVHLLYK

[7] = target: Neuropeptide Y receptor type 2 (Homo sapiens) (UniProt P49146); assay: Displacement of [125I]Peptide-YY from neuropeptide Y receptor type 2 in human KAN-TS cells at 10 uM after 2 hrs relative to control; assay type: cell-based
[8] = target: Neuropeptide Y receptor type 2 (Homo sapiens, UniProt P49146); assay: Displacement of [125I]Peptide YY from neuropeptide Y receptor type 2 in human KAN-TS cells after 2 hrs; assay type: cell-based
Chain of Neuropeptide Y receptor type 2 (P49146 whole entry): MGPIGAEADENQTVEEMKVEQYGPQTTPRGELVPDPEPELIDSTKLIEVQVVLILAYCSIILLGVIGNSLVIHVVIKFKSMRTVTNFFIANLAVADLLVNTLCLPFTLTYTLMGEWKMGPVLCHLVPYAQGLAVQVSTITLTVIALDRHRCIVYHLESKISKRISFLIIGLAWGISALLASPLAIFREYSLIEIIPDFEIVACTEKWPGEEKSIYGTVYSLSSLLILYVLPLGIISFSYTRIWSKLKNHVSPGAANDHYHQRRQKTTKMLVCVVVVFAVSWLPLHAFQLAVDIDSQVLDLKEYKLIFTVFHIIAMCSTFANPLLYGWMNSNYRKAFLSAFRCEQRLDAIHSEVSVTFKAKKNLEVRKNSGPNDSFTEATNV

[9] = Displacement of [3H]Idazoxan from central-type imidazole receptor 2 imidazoline binding site in Wistar rat cerebral cortex after 30 mins; assay type: tissue-based
[10] = organism: Rattus norvegicus; assay: Displacement of [3H]Idazoxan from central-type imidazole receptor 2 imidazoline binding site in Wistar rat cerebral cortex at 10 uM after 30 mins relative to control; assay type: tissue-based
[11] = Cytotoxicity against human HMLE cells expressing shRNA and GFP after 70 to 74 hrs by Cell Titer Glo assay; assay type: cell-based
[12] = Chemical stability of the compound after 48 hrs in presence of GSH; assay type: physicochemical; settings: read-out: Stability
[13] = Metabolic stability in human plasma after 5 hrs; assay type: ADME, cell-free; settings: read-out: Stability
[14] = Solubility in PBS at 100 uM after 24 hrs at pH 7.4 by UPLC-MS analysis; assay type: physicochemical
[15] = Selectivity ratio of EC50 for human HMLE cells expressing shRNA and GFP to EC50 for human CSC-like HMLE cells expressing shRNA and epithelial cadherin; assay type: ADME, cell-based; settings: read-out: Ratio EC50
[16] = Chemical stability in DMSO after 48 hrs; assay type: physicochemical; settings: read-out: Stability
[17] = Cytotoxicity against human CSC-like HMLE cells expressing shRNA and epithelial cadherin after 70 to 74 hrs by Cell Titer Glo assay; assay type: functional, cell-based
[18] = Plasma protein binding in human; assay type: ADME, cell-free; settings: read-out: PPB (converted)
[19] = Chemical stability of the compound in PBS after 48 hrs at pH 7.4 by UPLC/MS analysis; assay type: physicochemical; settings: read-out: Stability
[20] = target: B2 bradykinin receptor (Homo sapiens) (UniProt P30411); settings: CHEM1, 10 uM
[21] = Displacement of [125I]omega-Conotoxin GVIA from N-type calcium channel in Wistar rat frontal brain after 30 mins
[22] = organism: Rattus norvegicus; assay: Displacement of [125I]omega-Conotoxin GVIA from N-type calcium channel in Wistar rat frontal brain at 10 uM after 30 mins relative to control
[23] = Displacement of [3H]Nitrendipine from L-type calcium channel dihydropyridine binding site in Wistar rat cerebral cortex after 90 mins; assay type: tissue-based
[24] = organism: Rattus norvegicus; assay: Displacement of [3H]Nitrendipine from L-type calcium channel dihydropyridine binding site in Wistar rat cerebral cortex at 10 uM after 90 mins relative to control; assay type: tissue-based
[25] = target: B1 bradykinin receptor (Homo sapiens) (UniProt P46663); assay: Displacement of [3H](Des-Arg10)-Kallidin from bradykinin B1 receptor in human IMR90 cells at 10 uM after 60 mins relative to control; assay type: cell-based; settings: IMR-90
[26] = target: Histamine H3 receptor (Homo sapiens) (UniProt Q9Y5N1); settings: CHO-K1, 10 uM
[27] = target: Prostaglandin E2 receptor EP4 subtype (Homo sapiens) (UniProt P35408); assay: Displacement of [3H]PGE2 from human recombinant prostanoid EP4 receptor in CHEM1 cells at 10 uM after 2 hrs relative to control; assay type: cell-based
[28] = target: Muscarinic acetylcholine receptor M3 (Homo sapiens) (UniProt P20309); settings: CHO-K1, 10 uM
Chain of Muscarinic acetylcholine receptor M3 (Homo sapiens) (P20309 whole entry, looked up): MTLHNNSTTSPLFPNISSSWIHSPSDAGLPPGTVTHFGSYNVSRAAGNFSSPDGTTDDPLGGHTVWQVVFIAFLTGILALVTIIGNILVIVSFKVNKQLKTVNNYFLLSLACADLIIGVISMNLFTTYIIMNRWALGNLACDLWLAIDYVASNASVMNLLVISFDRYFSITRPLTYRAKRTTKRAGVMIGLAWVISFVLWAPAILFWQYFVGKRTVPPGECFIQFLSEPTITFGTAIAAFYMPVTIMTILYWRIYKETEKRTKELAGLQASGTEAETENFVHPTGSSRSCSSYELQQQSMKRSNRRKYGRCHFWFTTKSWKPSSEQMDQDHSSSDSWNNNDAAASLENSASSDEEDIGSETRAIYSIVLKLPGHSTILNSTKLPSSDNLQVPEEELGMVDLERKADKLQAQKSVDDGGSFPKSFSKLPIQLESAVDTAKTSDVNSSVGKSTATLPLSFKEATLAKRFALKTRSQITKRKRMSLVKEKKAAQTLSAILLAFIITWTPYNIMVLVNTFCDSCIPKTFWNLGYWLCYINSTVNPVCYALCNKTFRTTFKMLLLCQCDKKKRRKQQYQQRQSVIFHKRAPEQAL

[29] = target: Muscarinic acetylcholine receptor M1 (Homo sapiens) (UniProt P11229); assay: Displacement of [3H]N-methylscopolamine from human recombinant muscarinic M1 receptor expressed in CHOK1 cells at 10 uM after 2 hrs relative to control; assay type: cell-based; settings: CHO-K1
[30] = target: Muscarinic acetylcholine receptor M2 (Homo sapiens) (UniProt P08172); settings: CHO-K1, 10 uM
[31] = target: Muscarinic acetylcholine receptor M1 (Homo sapiens, UniProt P11229); assay: Displacement of [3H]N-methylscopolamine from human recombinant muscarinic M1 receptor expressed in CHOK1 cells after 2 hrs; assay type: cell-based, CHO-K1
[32] = target: Mu-type opioid receptor (Homo sapiens) (UniProt P35372); settings: CHO-K1, 10 uM
Chain of Mu-type opioid receptor (Homo sapiens) (P35372 whole entry): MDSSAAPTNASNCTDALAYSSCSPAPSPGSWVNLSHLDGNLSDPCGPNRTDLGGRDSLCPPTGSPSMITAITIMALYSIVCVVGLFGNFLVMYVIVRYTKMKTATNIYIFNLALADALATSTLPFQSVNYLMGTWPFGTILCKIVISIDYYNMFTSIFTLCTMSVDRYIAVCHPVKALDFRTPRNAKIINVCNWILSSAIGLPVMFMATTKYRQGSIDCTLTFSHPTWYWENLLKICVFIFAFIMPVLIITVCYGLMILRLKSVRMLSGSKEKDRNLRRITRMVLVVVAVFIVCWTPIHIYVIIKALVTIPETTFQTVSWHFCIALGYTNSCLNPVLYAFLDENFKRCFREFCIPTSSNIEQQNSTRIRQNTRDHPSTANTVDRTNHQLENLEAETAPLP

[33] = target: T1, Glutamate NMDA receptor (Rattus norvegicus) (UniProt P35439+Q00959+Q00960+Q00961+Q62645+Q8VHN2+Q9R1M7); settings: Wistar, Cerebral cortex, 10 uM
[34] = test system: IMR-32; assay: Displacement of [I125]Epibatidine from nAChR in human IMR32 cells at 10 uM after 60 mins relative to control; assay type: cell-based
[35] = target: Glutamate NMDA receptor; assay: Displacement of [3H]MDL105519 from NMDA receptor glycine binding site in Wistar rat cerebral cortex after 30 mins; assay type: tissue-based
[36] = target: T1, Glutamate NMDA receptor (Rattus norvegicus); assay: Displacement of [3H]MDL105519 from NMDA receptor glycine binding site in Wistar rat cerebral cortex at 10 uM after 30 mins relative to control; assay type: tissue-based
[37] = target: T1, Glutamate NMDA receptor (Rattus norvegicus); settings: Wistar, Cerebral cortex, 10 uM; remark: listed apart in the source
[38] = organism: Rattus norvegicus; assay: Displacement of [3H]Kainic acid from kainate receptor in Wistar rat brain at 10 uM after 60 mins relative to control
[39] = test system: CHO-K1; assay: Displacement of [125I]2-iodomelatonin from human recombinant melatonin receptor 1 expressed in CHOK1 cells at 10 uM after 3 hrs relative to control; assay type: cell-based
[40] = target: Adenosine receptor A3 (Homo sapiens) (UniProt P0DMS8); settings: CHO-K1, 10 uM
[41] = target: Histamine H2 receptor (Homo sapiens) (UniProt P25021); assay: Displacement of [125I]Aminopotentidine from human recombinant histamine H2 receptor expressed in CHOK1 cells at 10 uM after 2 hrs relative to control; assay type: cell-based; settings: CHO-K1
Chain of Histamine H2 receptor (Homo sapiens) (P25021 whole entry): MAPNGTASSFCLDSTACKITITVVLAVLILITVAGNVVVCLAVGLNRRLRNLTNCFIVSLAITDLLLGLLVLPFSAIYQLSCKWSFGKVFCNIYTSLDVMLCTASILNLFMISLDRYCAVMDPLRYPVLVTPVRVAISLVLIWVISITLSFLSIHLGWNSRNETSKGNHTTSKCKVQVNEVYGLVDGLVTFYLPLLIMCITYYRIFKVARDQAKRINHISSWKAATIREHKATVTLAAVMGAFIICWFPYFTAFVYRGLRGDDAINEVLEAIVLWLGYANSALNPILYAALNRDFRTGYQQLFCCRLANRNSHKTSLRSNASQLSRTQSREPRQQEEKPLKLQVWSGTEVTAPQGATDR

[42] = test system: HIT-T15; assay: Displacement of [3H]Glyburide from ATP-sensitive potassium channel in hamster pancreatic HIT-T15 cells at 10 uM after 2 hrs relative to control; assay type: cell-based; settings: Mesocricetus auratus
[43] = Displacement of [3H]Glyburide from ATP-sensitive potassium channel in hamster pancreatic HIT-T15 cells after 2 hrs; assay type: cell-based, Mesocricetus auratus
[44] = target: Platelet-activating factor receptor (Homo sapiens) (UniProt P25105); assay: Displacement of [3H]PAF from platelet activating factor receptor in human platelets at 10 uM after 3 hrs relative to control
Chain of Platelet-activating factor receptor (Homo sapiens) (P25105 whole entry): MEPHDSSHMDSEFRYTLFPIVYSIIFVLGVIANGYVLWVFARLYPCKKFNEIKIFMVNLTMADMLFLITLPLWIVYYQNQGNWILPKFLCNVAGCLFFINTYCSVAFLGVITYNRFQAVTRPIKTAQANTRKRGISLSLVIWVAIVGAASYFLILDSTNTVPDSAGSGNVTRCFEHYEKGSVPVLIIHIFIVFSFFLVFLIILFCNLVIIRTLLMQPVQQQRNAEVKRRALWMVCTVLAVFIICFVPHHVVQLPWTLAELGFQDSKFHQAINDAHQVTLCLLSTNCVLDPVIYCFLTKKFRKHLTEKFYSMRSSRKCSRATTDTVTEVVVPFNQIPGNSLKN

[45] = target: Delta-type opioid receptor (Homo sapiens) (UniProt P41143); settings: HEK293, 10 uM
Chain of Delta-type opioid receptor (Homo sapiens) (P41143 whole entry): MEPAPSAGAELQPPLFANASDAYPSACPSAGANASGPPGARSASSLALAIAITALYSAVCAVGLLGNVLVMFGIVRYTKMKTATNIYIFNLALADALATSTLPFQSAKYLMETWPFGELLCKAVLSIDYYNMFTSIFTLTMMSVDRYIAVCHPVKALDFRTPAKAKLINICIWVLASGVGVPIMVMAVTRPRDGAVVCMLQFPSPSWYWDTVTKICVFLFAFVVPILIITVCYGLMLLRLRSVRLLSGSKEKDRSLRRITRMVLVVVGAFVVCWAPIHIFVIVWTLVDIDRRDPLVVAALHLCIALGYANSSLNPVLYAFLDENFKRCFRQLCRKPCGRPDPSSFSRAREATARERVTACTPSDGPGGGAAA

[46] = target: Cysteinyl leukotriene receptor 1 (Homo sapiens) (UniProt Q9Y271); settings: CHO-K1, 10 uM
Chain of Cysteinyl leukotriene receptor 1 (Homo sapiens) (Q9Y271 whole entry): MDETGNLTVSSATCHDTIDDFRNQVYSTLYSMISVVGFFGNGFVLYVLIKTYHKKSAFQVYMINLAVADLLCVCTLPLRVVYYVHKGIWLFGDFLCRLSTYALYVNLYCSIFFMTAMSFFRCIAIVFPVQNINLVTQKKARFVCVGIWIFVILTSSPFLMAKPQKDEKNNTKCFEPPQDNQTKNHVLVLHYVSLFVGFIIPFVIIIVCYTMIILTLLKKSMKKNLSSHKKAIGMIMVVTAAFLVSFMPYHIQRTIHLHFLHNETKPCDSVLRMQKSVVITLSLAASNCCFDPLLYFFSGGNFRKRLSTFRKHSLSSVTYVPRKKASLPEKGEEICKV

[47] = target: D(4) dopamine receptor (Homo sapiens) (UniProt P21917); settings: CHO-K1, 10 uM
Chain of D(4) dopamine receptor (Homo sapiens) (P21917 whole entry): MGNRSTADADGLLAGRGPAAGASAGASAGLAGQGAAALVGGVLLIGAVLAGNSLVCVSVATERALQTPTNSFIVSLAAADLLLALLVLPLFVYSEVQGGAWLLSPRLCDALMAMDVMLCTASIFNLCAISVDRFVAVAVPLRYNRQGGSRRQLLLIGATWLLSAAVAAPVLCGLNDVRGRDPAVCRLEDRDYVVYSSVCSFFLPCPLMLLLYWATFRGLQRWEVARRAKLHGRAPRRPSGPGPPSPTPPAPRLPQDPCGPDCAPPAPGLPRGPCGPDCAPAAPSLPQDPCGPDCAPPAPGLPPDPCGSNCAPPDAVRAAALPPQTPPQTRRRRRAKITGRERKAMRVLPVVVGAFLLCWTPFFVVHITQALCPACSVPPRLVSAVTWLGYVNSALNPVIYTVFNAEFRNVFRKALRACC

[48] = target: D(2) dopamine receptor (Homo sapiens) (UniProt P14416); settings: CHO, 10 uM
Chain of D(2) dopamine receptor (Homo sapiens) (P14416 whole entry): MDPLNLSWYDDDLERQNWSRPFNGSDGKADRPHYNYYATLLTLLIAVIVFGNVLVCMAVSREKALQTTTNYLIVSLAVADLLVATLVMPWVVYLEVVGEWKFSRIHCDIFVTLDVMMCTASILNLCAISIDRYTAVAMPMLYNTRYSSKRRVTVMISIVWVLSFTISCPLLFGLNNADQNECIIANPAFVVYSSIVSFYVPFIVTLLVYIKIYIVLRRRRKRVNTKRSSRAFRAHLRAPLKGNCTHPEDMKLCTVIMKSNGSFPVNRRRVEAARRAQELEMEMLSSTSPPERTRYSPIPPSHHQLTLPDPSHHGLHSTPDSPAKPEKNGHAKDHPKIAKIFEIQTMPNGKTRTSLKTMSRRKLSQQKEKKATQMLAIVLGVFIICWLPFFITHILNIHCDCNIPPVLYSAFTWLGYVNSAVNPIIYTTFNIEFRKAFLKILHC

Chain of Adenosine receptor A1 (Homo sapiens) (P30542 whole entry): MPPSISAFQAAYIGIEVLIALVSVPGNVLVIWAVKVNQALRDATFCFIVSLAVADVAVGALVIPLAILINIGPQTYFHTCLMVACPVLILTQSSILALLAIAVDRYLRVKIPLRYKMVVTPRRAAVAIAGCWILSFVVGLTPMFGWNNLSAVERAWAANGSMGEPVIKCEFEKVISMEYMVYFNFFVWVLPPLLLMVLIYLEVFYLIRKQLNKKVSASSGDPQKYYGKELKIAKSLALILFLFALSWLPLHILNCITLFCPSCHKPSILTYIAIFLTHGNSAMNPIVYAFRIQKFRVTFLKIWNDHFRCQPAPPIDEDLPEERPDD

Molecule: C[C@H](Cc1ccccc1)Nc1ncnc2c1ncn2[C@@H]1O[C@H](CO)[C@@H](O)[C@H]1O
- inhibition [1]: 25%

Molecule: Nc1ncnc2c1ncn2[C@@H]1O[C@H](COP(=O)(O)CP(=O)(O)OP(=O)(O)O)[C@@H](O)[C@H]1O [DIPHOSPHOMETHYLPHOSPHONIC ACID ADENOSYL ESTER]
- IC50 [2]: 82 nM
- Ki [2]: 18 nM
- inhibition [3]: 3%

Molecule: CCCCCCCCCCCCCC(=O)O[C@@H]1[C@@H](C)[C@@]2(O)[C@@H](C=C(CO)C[C@]3(O)C(=O)C(C)=C[C@@H]23)[C@@H]2C(C)(C)[C@]12OC(C)=O [PHORBOL MYRISTATE ACETATE]
- IC50 [4]: 0.79 nM
- Ki [4]: 0.59 nM
- inhibition [5]: -1%

Molecule: C[C@H](NC[C@H](O)CP(=O)(O)CC1CCCCC1)c1ccc(Cl)c(Cl)c1
- inhibition [6]: 1%

Molecule: H-PAEDLARYYSALRHYITRRQRY-NH2
- inhibition [7]: 6%
- IC50 [8]: 0.21 nM
- Ki [8]: 0.12 nM

Molecule: c1ccc2c(c1)OCC(C1=NCCN1)O2 (stereo unspecified) [IDAZOXAN]
- IC50 [9]: 12 nM
- Ki [9]: 8 nM
- inhibition [10]: 11%

Molecule: CCc1ccc(/C=C/C(=O)NC2=NCCS2)cc1
- EC50 [11]: 64000 nM
- remaining at 48 h [12]: 82%
- remaining at 5 h [13]: 97.1%
- solubility at 24 h, 100 µM [14]: 11.5 µM (≈ 2.99 µg/mL)
- selectivity ratio [15]: 32
- remaining at 48 h [16]: > 75%
- EC50 [17]: 2000 nM
- fraction unbound [18]: 0.034
- remaining at 48 h [19]: 75%

Molecule: H-RPPGFSPFR-OH
- inhibition [20]: 4%

Molecule: C[C@@H](O)[C@@H]1NC(=O)[C@H](Cc2ccc(O)cc2)NC(=O)[C@@H]2C[C@@H](O)CN2C(=O)[C@H](CC(N)=O)NC(=O)[C@@H]2CSSC[C@@H]3NC(=O)[C@H](CO)NC(=O)[C@H](CO)NC(=O)CNC(=O)[C@@H]4C[C@@H](O)CN4C(=O)[C@H](CO)NC(=O)[C@H](CCCCN)NC(=O)[C@@H](N)CSSC[C@H](NC(=O)[C@H](CSSC[C@@H](C(=O)N[C@@H](Cc4ccc(O)cc4)C(N)=O)NC(=O)[C@H](CCCNC(=N)N)NC(=O)[C@H](CCCCN)NC1=O)NC(=O)[C@H](CC(N)=O)NC(=O)[C@H](Cc1ccc(O)cc1)NC(=O)[C@H](CO)NC(=O)[C@H]([C@@H](C)O)NC(=O)[C@@H]1C[C@@H](O)CN1C(=O)[C@H](CO)NC3=O)C(=O)N[C@@H](CCCNC(=N)N)C(=O)N[C@@H](CO)C(=O)N2
- IC50 [21]: 0.034 nM
- Ki [21]: 0.028 nM
- inhibition [22]: 14%

Molecule: CCOC(=O)C1=C(C)NC(C)=C(C(=O)OC)C1c1cccc([N+](=O)[O-])c1 (stereo unspecified) [NITRENDIPINE]
- IC50 [23]: 0.72 nM
- Ki [23]: 0.46 nM
- inhibition [24]: -6%

Molecule: NCCCC[C@H](N)C(=O)N[C@@H](CCCN=C(N)N)C(=O)N1CCC[C@H]1C(=O)N1CCC[C@H]1C(=O)NCC(=O)N[C@@H](Cc1ccccc1)C(=O)N[C@@H](CO)C(=O)N1CCC[C@H]1C(=O)N[C@@H](Cc1ccccc1)C(=O)O
- inhibition [25]: 8%

Molecule: C[C@@H](N)Cc1c[nH]cn1
- inhibition [26]: 6%

Molecule: CCCCC[C@H](O)/C=C/[C@H]1[C@H](O)CC(=O)[C@@H]1C/C=C\CCCC(=O)O
- inhibition [27]: 5%

Molecule: C[N+]1(C)CCC(OC(=O)C(c2ccccc2)c2ccccc2)CC1 [4-DAMP]
- inhibition [28]: -4%
- inhibition [29]: 5%
- inhibition [30]: -2%
- IC50 [31]: 4.5 nM

Molecule: C[C@@H](NC(=O)[C@@H](N)Cc1ccc(O)cc1)C(=O)NCC(=O)N(C)[C@@H](Cc1ccccc1)C(=O)NCCO
- inhibition [32]: 4%

Molecule: C[C@@]12NC(Cc3ccccc31)c1ccccc12
- inhibition [33]: 1%

Molecule: Clc1ccc(C2CC3CCC2N3)cn1 (stereo unspecified)
- inhibition [34]: 12%

Molecule: O=C(O)/C(=C/c1c(C(=O)O)[nH]c2cc(Cl)cc(Cl)c12)c1ccccc1
- IC50 [35]: 22 nM
- Ki [35]: 21 nM
- inhibition [36]: -3%

Molecule: N[C@@H](CCC(=O)O)C(=O)O
- inhibition [37]: 10%
- inhibition [38]: 0%

Molecule: COc1ccc2[nH]cc(CCNC(C)=O)c2c1
- inhibition [39]: 11%

Molecule: CNC(=O)[C@H]1O[C@@H](n2cnc3c(NCc4cccc(I)c4)ncnc32)[C@H](O)[C@@H]1O
- inhibition [40]: 22%

Molecule: C/N=C(/NC#N)NCCSCc1csc(NC(=N)N)n1
- inhibition [41]: 11%

Molecule: COc1ccc(Cl)cc1C(=O)NCCc1ccc(S(=O)(=O)NC(=O)NC2CCCCC2)cc1 [GLYBURIDE]
- inhibition [42]: 10%
- IC50 [43]: 5.7 nM
- Ki [43]: 0.65 nM

Molecule: CCCCCCCCCCCCCCCCOC[C@H](COP(=O)([O-])OCC[N+](C)(C)C)OC(C)=O
- inhibition [44]: 6%

Molecule: Oc1ccc2c3c1O[C@H]1c4[nH]c5ccccc5c4C[C@@]4(O)[C@@H](C2)N(CC2CC2)CC[C@]314
- inhibition [45]: 18%

Molecule: CCCCC/C=C\C\C=C/C=C/C=C/[C@@H](SC[C@H](N)C(=O)NCC(=O)O)[C@@H](O)CCCC(=O)O
- inhibition [46]: -10%

Molecule: O=C(CCCN1CCC2(CC1)C(=O)NCN2c1ccccc1)c1ccc(F)cc1
- inhibition [47]: -3%
- inhibition [48]: -3%
